Source: US8389481B2, “Glutamate-enhanced cell-penetrating peptides and methods of using same” (University of Medicine and Dentistry of New Jersey, priority 2008, dated 2013)
Values joined by “and” are separate entries in the source; they are usually repeats but may differ in a detail not shown here. Identical values can stand only once. Primed or numbered codes have the meaning given here. Ends that are not written are not given here. Peptide text beside a SMILES is read from it. * marks the point of attachment. {P353} = cell-penetrating peptide 353 (Glu-Oct6) attached at PNA N-terminus; {Lys-FITC} = C-terminal lysine carrying fluorescein (FITC); 5FAM = O=C1OC2(c3ccc(O)cc3Oc3cc(O)ccc32)c2ccc(C(=O)*)cc21; FITC′ = not defined here

Columns and labels:
Type in all cases: cell-based
DU-145 cells [1] = experiment: Peptide uptake by live cells, flow cytometry (geometric MFI); settings: for geometric MFI compared among the peptides (FIG. 1A): 500 nM peptides, 4 hrs incubation; for effect of NaN3 on uptake: 0.1 or 1% NaN3, 300 nM peptide; for average geometric MFI: 300 nM peptides, 4° C., 4 hours (FIG. 2); for uptake of carboxydansyl peptide on coincubation with peptide 353: 300 nM each, 1 hr (FIG. 1D)
Experimental: (§1) Uptake of peptides by live cells was compared by flow cytometry, using the exclusion dye 7-amino actinomycin D (7-AAD) to exclude dead cells from analyses.
(§2) Cells: DU-145 and LNCaP cells were the gift of Dr. James Turkson (University of South Florida, Tampa, Fla.). DU-145 cells were grown in DMEM/Ham's F12 (Invitrogen, Carlsbad, Calif.) plus 10% newborn bovine serum (Hyclone, Logan, Utah). LNCaP cells were maintained in RPMI-1640 (Invitrogen) plus fetal bovine serum (Hyclone). Cell viabilities were determined using fluorescein diacetate (Sigma Chemical Co., St. Louis, Mo.) and a Universal RIII fluorescence microscope (Zeiss, Jena, Germany).
(§3) Uptake and Fluorescence Quantification Studies: Peptides were added to subconfluent cultures of cells at times, temperatures, and concentrations indicated in experiments. Concentrations ranging from 0 to 3000 nM were assayed. Cells were analyzed in the presence of […] 7-AAD (eBioscience, San Digeo Calif.) to gate on live events. Fluorescence was quantified, after cells were harvested, using a FACScan flow cytometer. At least 10,000 events were acquired using CellQuest Pro software and an Apple Macintosh G4 dual coprocessor computer running OS X 10.3.9. Fluorescence detectors on the instrument were standardized prior to each acquisition run, so that fluorescence intensities from different days could be compared. Because the FACScan employs logarithmic amplifiers on the fluorescence detectors, the more accurate parameter with which to compare fluorescence intensities for different samples is the geometric mean fluorescence intensity (geometric MFI). In some studies, fixed cells (4% paraformaldehyde/DPBS) were analyzed on an Amnis ImageStream 200 imaging cytometer using IDEAS 3.0 software.

[2] = Cell death determined by staining with 7-AAD; settings: human, DU-145 cells; 3000 nM, 1 hr (FIG. 1C)
Experimental: (§4) In order to determine if uptake of peptide 353 was receptor-mediated or receptor-specific in any way, Glu residues were substituted by Phe residues (peptide 361) or Asn residues (peptide 362). The resulting peptides were incubated at 0 to 3000 nM with DU-145 cells for 1 hr. Cells were then harvested and processed for analysis by flow cytometry. […] At 3000 nM, peptides 361 and 362 induced cell death in more than 70% of the cells (determined by staining with 7-AAD); in the case of peptide 361, over 95% of DU-145 cells were positive for 7-AAD; therefore only geometric MFI for concentrations up to 1000 nM are shown in the figure. […] The higher MFI observed for peptide 365 is likely due to the hydrophobicity of both the Phe residues and the dansyl fluorochrome. It was concluded from these experiments that peptide 353 bound to a cell-surface receptor through the glutamate residues.
as §3

DU-145 cells [3] = experiment: Cell death determined by staining with 7-AAD; settings: concentrations higher than 300 nM
Experimental: as §4, §3

DU-145 cells [4] = experiment: Imaging flow cytometry, intracellular distribution of FITC-labeled peptides; settings: 250 nM, 4 hours
Experimental: (§5) FIG. 3A: DU-145 and LN-CaP cells were incubated with 250 nM peptides 351 or 353 for 4 hours, counterstained with 5 μM DRAQ 5, then fixed in paraformaldehyde and analyzed by imaging flow cytometry on an Amnis Imaging Cytometer. IDEAS software (Amnis) was used to generate and colorize the images. […] FIG. 3B: Live cell imaging of peptide 353 by DU-145 cells. 500 nM peptide 353 was incubated with DU-145 cells overnight (necessary for imaging purposes). Cells were washed with phenol red-free buffer, counter-stained with DRAQ5 at 10 μM, then examined under a Zeiss Axiovert 200 inverted phase contrast microscope with epifluorescence. The merged image confirms the presence of peptide 353 in nuclei. FIGS. 3C and D: DU-145 cells incubated with peptides 350 and 356, as described for FIG. 3B. Note the absence of FITC fluorescence in nuclei.
(§6) Since flow cytometry only gives data regarding total shifts in fluorescence of a population, imaging flow cytometry and live imaging microscopy studies were performed to determine if the NLS augmented nuclear accumulation of the peptides. Imaging flow cytometry was chosen to provide data on intracellular distribution of FITC-labeled peptides. Inverted epifluorescence microscopy was chosen to eliminate inadvertant artifacts that may arise from fixation, such as nuclear translocation. For these studies, the cell-permeable fluorochrome DRAQ5 was used because it readily enters and stains nuclei of viable cells. […] It was not retained in the plasma membrane (FIG. 3A). […] The translocation of peptides to nuclei was complete in the sense that FITC and DRAQ5 fluorescence colocalized in all viable cells, although cytoplasmic fluorescence was visible as well. The FITC distribution was somewhat punctuate in the cytoplasmic portion of cells, leading us to conclude that the peptide may be accumulating within endosomes. […]
as §3, with “Concentrations ranging from 0 to 3000 nM were assayed.” left out, “At least 10,000 events were acquired using CellQuest Pro software and an Apple Macintosh G4 dual coprocessor computer running OS X 10.3.9.” left out

LNCaP cells [5] = experiment: as above; settings: 250 nM, 4 hours
Experimental: as §5, §6
as §3, with “Concentrations ranging from 0 to 3000 nM were assayed.” left out, “At least 10,000 events were acquired using CellQuest Pro software and an Apple Macintosh G4 dual coprocessor computer running OS X 10.3.9.” left out

LNCaP cells [6] = experiment: Peptide uptake by live cells, flow cytometry (geometric MFI); settings: 3 μM peptide, 1 hr (FIG. 1B)
Experimental: as §1, §2, §3

DU-145 cells [7] = experiment: Live cell imaging of nuclear localization (epifluorescence microscopy); settings: 500 nM, 24 hrs incubation
Experimental: as §6
(§7) Live Cell Imaging Studies: A Zeiss Axiovert 200 inverted phase-contrast microscope outfitted with epifluorescence was used for live imaging studies. […] Images were acquired and analyzed using Zeiss Axiovision software.

LNCaP cells [8] = experiment: as above; settings: 500 nM, 24 hrs incubation
Experimental: as §6, §7

[9] = up to 300 nM, 1 hr, 37 ° C. (FIG. 1C), from approximately 40 without peptide
[10] = 300 nM peptide, 4 hr, 37° C., NaN3 0%
[11] = 300 nM peptide, 4 hr, 37° C., NaN3 0.1%
[12] = 300 nM peptide, 4 hr, 37° C., NaN3 1.0%
[13] = 300 nM peptide, 4 hr, NaN3 0.1%
[14] = 300 nM peptide, 4 hr, NaN3 1.0%

Row | Compound | cell death (DU-145 cells [3]) | Geometric MFI (DU-145 cells [1]; [10]) | Geometric MFI (DU-145 cells [1]; [11]) | Geometric MFI (DU-145 cells [1]; [12]) | % Inhibition (DU-145 cells [1]; 300 nM peptide, 4 hr, NaN3 0%) [%] | % Inhibition (DU-145 cells [1]; [13]) [%] | % Inhibition (DU-145 cells [1]; [14]) [%] | geometric MFI compared among the peptides (FIG. 1A) (DU-145 cells [1]) | effect of NaN3 on uptake (DU-145 cells [1]; 4 hr, 37° C.) | average geometric MFI (DU-145 cells [1]) | further results
1 | C[C@H](NC(=O)[C@H](C)NC(=O)[C@H](Cc1ccccc1)NC(=O)[C@H](Cc1ccccc1)NC(=O)[C@@H](N)Cc1ccccc1)C(=O)NCC(=O)N[C@@H](CCCNC(=N)N)C(=O)N[C@@H](CCCCN)C(=O)N[C@@H](CCCNC(=N)N)C(=O)N[C@@H](CCCCN)C(=O)N[C@@H](CCCCN)C(=O)N[C@@H](CCCNC(=N)N)C(=O)N[C@H](C(=O)N[C@@H](CCCCNC(=O)c1ccc2c(c1)C(=O)OC21c2ccc(O)cc2Oc2cc(O)ccc21)C(=O)O)[C@@H](C)O [Peptide 361, FFFAAGRKRKKRT-FITC] (H-FFFAAGRKRKKRTK(5FAM)-OH) | significant cell death | – | – | – | – | – | – | – | – | – | Geometric MFI (DU-145 cells [1]; [9]): ~100; viability at 1 h, 3 µM [2]: < 50%
2 | C[C@H](NC(=O)[C@H](C)NC(=O)[C@H](CC(N)=O)NC(=O)[C@H](CC(N)=O)NC(=O)[C@@H](N)CC(N)=O)C(=O)NCC(=O)N[C@@H](CCCNC(=N)N)C(=O)N[C@@H](CCCCN)C(=O)N[C@@H](CCCNC(=N)N)C(=O)N[C@@H](CCCCN)C(=O)N[C@@H](CCCCN)C(=O)N[C@@H](CCCNC(=N)N)C(=O)N[C@H](C(=O)N[C@@H](CCCCNC(=O)c1ccc2c(c1)C(=O)OC21c2ccc(O)cc2Oc2cc(O)ccc21)C(=O)O)[C@@H](C)O [Peptide 362, NNNAAGRKRKKRT-FITC] (H-NNNAAGRKRKKRTK(5FAM)-OH) | not seen | – | – | – | – | – | – | – | – | – | Geometric MFI (DU-145 cells [1]; [9]): ~100; viability at 1 h, 3 µM [2]: < 50%
3 | EEE-FITC [Peptide 350] | – | 25.6 | 26.4 | 29.7 | 0 | 0 | 0 | lowest values | no effect | – | –
4 | EEEAA-FITC (not fully specified; carboxyfluorescein label; Synthetically produced Glu peptide (Peptide 351)) | – | 43.8 | 56.9 | 48.4 | 0 | 0 | 0 | lowest values | no effect | – | accumulation in the cells when the plasma membrane was excluded (DU-145 cells [4]): much less accumulation; nuclei positive for DRAQ5 and FITC colocalization (DU-145 cells [4]): ~10%; accumulation in the cells when the plasma membrane was excluded (LNCaP cells [5]): much less accumulation; nuclei positive for DRAQ5 and FITC colocalization (LNCaP cells [5]): ~10%
5 | EEEAAGRKRKKRT-FITC (EEEAAGRKRKKRT-{FITC′}) [Peptide 353, glutamate peptide linked by alanine linker to Oct6 NLS] | not seen | 151 and 151.4 | 155.7 | 114 and 114.4 | 0 | 0 | – | significantly increased | – | 486 | uptake of carboxyfluorescein peptide 353 on coincubation (DU-145 cells [1]; 300 nM 353 with 300 nM carboxydansyl peptide 365 or 366, 1 hr (FIG. 1D)): nearly unaltered uptake; Geometric MFI (DU-145 cells [1]; 3 μM peptide, 1 hr (FIG. 1B)): 1500-2000; Geometric MFI (LNCaP cells [6]): 1500-2000; accumulation in the nuclei (DU-145 cells [7]): accumulated in the nuclei; accumulation in the nuclei (LNCaP cells [8]): accumulated in the nuclei
6 | EEEAAGRKRKKRT-TATGATCTCCTCCGT-K-FITC (all peptide nucleic acid (PNA), 5' {P353}, 3' {Lys-FITC}) [Peptide 353-PNA] | – | – | – | – | – | – | – | – | – | – | MFI of the cells with increasing concentration (DU-145 cells [1]; 0, 300, and 1000 nM, 18 hr (FIG. 4)): increased the MFI; MFI of small but highly fluorescent population of cells (DU-145 cells [1]; 300 nM, 18 hr (FIG. 4)): greater than 10^3
7 | EEEAAKKK-FITC (EEEAAKKK-{FITC′}) [Peptide 352] | – | 58.6 | 61.8 | 47.4 | 0 | 0 | 19.1 | significantly increased | no effect | 186 | –
8 | FFFAAGRKRKKRT-K-dansyl (FFFAAGRKRKKRTK-dansyl) [Peptide 365] | – | – | – | – | – | – | – | – | – | – | uptake of carboxydansyl peptide on coincubation with peptide 353 (DU-145 cells [1]): without concomitant uptake
9 | GRKRKKRT-FITC (GRKRKKRT-{FITC′}) [Peptide 356] | – | 417.6 | 293 | 181 | 0 | 29.8 | – | not nearly as great as that of peptide 353 | – | 325 | –
10 | NNNAAGRKRKKRT-K-dansyl (NNNAAGRKRKKRTK-dansyl) [Peptide 366] | – | – | – | – | – | – | – | – | – | – | uptake of carboxydansyl peptide on coincubation with peptide 353 (DU-145 cells [1]): without concomitant uptake
